Data: article PMC11093748, “De novo identification of CD4^+ T cell epitopes” (Nature Methods, 2024)
Where “and” joins values, the source holds several entries; their conditions need not be identical. Identical values can stand only once.

How the values were obtained:
Test in all cases: I-Ag7 SABR-II library screen, enrichment score
Assay type in all cases: cell-based, mouse
TCR8 = settings: TCR_Mean minus PREDICTED_TCR (from LIB_Mean, SLOPE 0.946603, INTERCEPT 1.31036e-5), PZ47
Excerpt: (§1) We then asked whether SABR-IIs could be used to present a library of epitopes for CD4^+ T cell antigen discovery. To that end, we constructed a SABR-II library to present epitopes derived from pancreatic islets in I-Ag7 by curating a list of 4,075 published epitopes from the Immune Epitope Database (iedb.org)[50] and a study by Wan et al.[51] (Supplementary Table 1). Of note, this defined library consisted of unmodified epitopes from endogenous proteins, synthetic mimotopes, deamidated epitopes and hybrid insulin peptides (HIPs) that arise from post-translational fusion and are not genetically encoded in vivo[52],[53]. The epitope library was inserted into the I-Ag7 SABR-II backbone through pooled oligonucleotide synthesis, amplification and ligation-free cloning (Extended Data Fig. 3a). The I-Ag7 SABR-II-library was then expressed in NFAT–GFP Jurkat cells. We confirmed that after sequencing, the library accounted for a mean of 708 reads per epitope (Extended Data Fig. 3b). As a proof of concept, we performed co-incubation assays with Jurkat cells expressing the BDC2.5 TCR and sorted the top 1–2% of GFP^+CD69^+ cells at a rate of ~20 min per replicate with three replicates per TCR. We extracted the genomic DNA from sorted cells, amplified the SABR portion of the integrated proviruses and subjected the amplicons to Illumina sequencing (Extended Data Fig. 3c,d). The 1–2% sort gate represents >50-fold enrichment of cognate epitopes with minimal loss of signal (Extended Data Fig. 3e–h). Sequence reads were aligned to the I-Ag7 SABR-II backbone and the corresponding epitopes were scored based on their read counts. For each TCR under investigation, an enrichment score (ES) was determined for all the epitopes in a library. In each experiment, three replicates of a sort with TCR-expressing Jurkat cells were performed and reads were counted post-sequencing. In addition, three replicates of the unsorted library were also sequenced. A linear regression model was built using the unsorted library counts and used to determine the expected abundance of each epitope in the library. The ES was calculated based on the difference between the measured and the expected abundance of each epitope on a per-TCR basis (Fig. 1e). Based on ES values, two quantitative thresholds were used to determine putative cognate epitopes of a given TCR. A high-confidence zone containing clear outliers with a high ES and a low-confidence zone containing weak outliers with a moderately high ES were determined (Fig. 1e). This two-tiered strategy was used to call putative hits from screens. All the top-scoring epitopes for the BDC2.5 TCR were known BDC2.5 ligands containing the WXRM(D/E) motif (Fig. 1f,g, enriched ligands in red), a well-characterized trait of the BDC2.5 TCR[43],[54]–[56]. Across several independent experiments there was limited variation in ES values for the same TCRs and several epitopes fell into high- or low-confidence zones consistently (Extended Data Fig. 4a). Using a different TCR that was isolated from NOD mice, 4-8Ins[57], which recognized the InsB9:23 epitope ([…]), we observed a similar pattern of ES for cognate epitopes (Extended Data Fig. 4b).
(§2) We performed systematic screening of the cloned TCRs against the I-Ag7 SABR-II library. Several TCRs along with a positive control (such as BDC2.5 or 4-8Ins) were screened individually against the library for each sort (Extended Data Fig. 6a and Supplementary Table 4). High- and low-confidence ES zones for each screened TCR were defined by the ES values of the control TCR’s cognate epitopes. For all putative cognate epitopes, single SABR-IIs were constructed, expressed in NFAT–GFP Jurkat cells and used for co-incubation with the corresponding TCRs. Co-incubation assays that yielded a GFP signal higher than that obtained in assays with no TCR were determined to be positive and the epitopes deemed true cognate ligands (Extended Data Fig. 6b,c). […]

TCR36 = settings: TCR_Mean minus PREDICTED_TCR (slope 0.914754, intercept 2.09193e-5 on LIB_Mean), TCR 36, run PZ57
Excerpt: as §1, §2

TCR23 = test system: TCR23
Excerpt: as §1, §2

TCR40 = settings: I-Ag7 SABR-II library PZ101, CD4 TCR 40; TCR_Mean of 3 replicates minus PREDICTED_TCR (slope 0.959981, intercept 9.82052e-6)
Excerpt: as §1, §2

TCR5 = test system: TCR5
Excerpt: as §1, §2

TCR32 = settings: TCR_Mean minus PREDICTED_TCR (slope 0.962506, intercept 9.20103e-6 on LIB_Mean), TCR 32, run PZ98
Excerpt: as §1, §2

TCR2 = settings: sheet TCR2-PZ44; ES = TCRObserved - TCRPredicted; TCRPredicted = LIBObserved x SLOPE + INTERCEPT; SLOPE 0.908797, INTERCEPT 2.23811e-5
Excerpt: as §1, §2

TCR17C = settings: TCR_Mean minus PREDICTED_TCR (from LIB_Mean, SLOPE 0.897918, INTERCEPT 2.50509e-5), PZ52
Excerpt: as §1, §2

TCR18 = test system: TCR18
Excerpt: as §1, §2

TCR9 = settings: TCR_Mean minus PREDICTED_TCR (from LIB_Mean, SLOPE 0.950453, INTERCEPT 1.21587e-5), PZ47
Excerpt: as §1, §2

TCR21A = settings: TCR_Mean minus PREDICTED_TCR (slope 0.957287, intercept 1.04818e-5 on LIB_Mean), TCR 21A, run PZ56
Excerpt: as §1, §2

TCR21B = settings: TCR_Mean minus PREDICTED_TCR (slope 0.954708, intercept 1.11146e-5 on LIB_Mean), TCR 21B, run PZ56
Excerpt: as §1, §2

TCR13 = test system: TCR13
Excerpt: as §1, §2

TCR17D = settings: TCR_Mean minus PREDICTED_TCR (from LIB_Mean, SLOPE 0.965121, INTERCEPT 8.55929e-6), PZ52
Excerpt: as §1, §2

[1] = I-Ag7 library, one biological experiment
[2] = TCR_Mean minus PREDICTED_TCR (slope 0.987149, intercept 3.15366e-6 on LIB_Mean), TCR 23, run PZ56
[3] = sheet TCR5-PZ44, ES = TCRObserved - TCRPredicted, TCRPredicted = LIBObserved x SLOPE + INTERCEPT, SLOPE 0.90726, INTERCEPT 2.27584e-5
[4] = TCR18, TCR_Mean minus PREDICTED_TCR (from LIB_Mean, SLOPE 0.92089, INTERCEPT 1.94136e-5), PZ52
[5] = TCR13, TCR_Mean minus PREDICTED_TCR (from LIB_Mean, SLOPE 0.90397, INTERCEPT 2.35655e-5), PZ51

Sequence | Enrichment score (TCR8) | Enrichment score (TCR36) | Enrichment score (TCR23; [1]) | Enrichment score (TCR23; [2]) | Enrichment score (TCR40) | Enrichment score (TCR5; [1]) | Enrichment score (TCR5; [3]) | Enrichment score (TCR32) | Enrichment score (TCR2) | Enrichment score (TCR17C) | Enrichment score (TCR18; [1]) | Enrichment score (TCR18; [4]) | Enrichment score (TCR9) | Enrichment score (TCR21A) | Enrichment score (TCR21B) | Enrichment score (TCR13; [1]) | Enrichment score (TCR13; [5]) | Enrichment score (TCR17D)
AAVEEGIVAGGGVTLL | -2.679e-5 | -0.0001187 | -9.242e-5 | 8.213e-5 | 6.713e-5 | 2.521e-5 and 3.881e-5 | 2.521e-5 | 3.811e-5 | 9.944e-5 | -3.436e-5 | -8.9534e-5 | -8.9534e-5 | -0.0001033 | 7.745e-5 | -9.242e-5 | 0.0001546 | 0.0001546 | 9.065e-5
AEKVRNLPAGHGLNAQ | -5.38e-5 | -6.905e-5 | 8.732e-6 | 0.0001238 | -9.416e-5 |  | 1.968e-5 | 4.971e-5 | 0.0001311 | 2.049e-5 | 0.0001149 | 0.0001149 | 2.252e-5 | 0.0001683 | 8.732e-6 | 0.000137 | 0.000137 | -0.00018
AGGVAVIKAGAATEV | -5.809e-5 | -1.016e-5 | -9.6548e-5 | -7.52e-5 | 8.867e-6 |  | -1.203e-5 | 9.791e-5 | -1.7e-5 | -0.0001062 | -7.134e-5 | -7.134e-5 | -1.065e-5 | 3.881e-5 | -9.6548e-5 | 0.0001675 | 0.0001675 | -6.024e-5
AKAAVEEGIVAGGGV | 4.499e-5 | -3.854e-5 | -2.11e-5 | -9.2e-5 | -1.429e-5 |  | 4.678e-5 | -4.13e-5 | -6.466e-5 | -5.707e-5 | -0.0001034 | -0.0001034 | 0.0002844 | -4.928e-5 | -2.11e-5 | 0.0001008 | 0.0001008 | -0.0001083
ALVREGLRNVAAGANP | -1.329e-5 | -2.092e-5 | -1.174e-5 | -3.805e-6 | -9.821e-6 |  | -2.1402e-5 | -9.201e-6 | -2.238e-5 | -2.514e-5 | -1.951e-5 | -1.951e-5 | -9.186e-6 | -1.111e-5 | -1.174e-5 | -2.357e-5 | -2.357e-5 | -8.6588e-6
